# In patent US20160138049A1, “OXYGEN-TOLERANT CoA-ACETYLATING [sequence] DEHYDROGENASE CONTAINING PATHWAY FOR BIOFUEL PRODUCTION” (The Regents of the University of California, priority 2013, published 2016):
# Like-named read-outs stand apart in the source and are kept apart here.
# B1: Lactobacillus brevis PduP, CoA-acylating propionaldehyde dehydrogenase (PduP_L.bre, YP_795711, SEQ ID NO:47 and 48), poly-His6 tagged (Levilactobacillus brevis … (protein)
# chain: MNTENIEQAIRKILSEELSNPQSSTATNTTVPGKNGIFKTVNEAIAATKAAQENYADQPISVRNKVIDAIREGFRPYIEDMAKRIHDETGMGTVSAKIAKLNNALYNTPGPEILQPEAETGDGGLVMYEYAPFGVIGAVGPSTNPSETVIANAIMMLAGGNTLFFGAHPGAKNITRWTIEKLNELVADATGLHNLVVSLETPSIESVQEVMQHPDVAMLSITGGPAVVHQALISGKKAVGAGAGNPPAMVDATANIALAAHNIVDSAAFDNNILCTAEKEVVVEAAVKDELIMRMQQEGAFLVTDSADIEKLAQMTIGPKGAPDRKFVGKDATYILDQAGISYTGTPTLIILEAAKDHPLVTTEMLMPILPVVCCPDFDSVLATATEVEGGLHHTASIHSENLPHINKAAHRLNTSIFVVNGPTYCGTGVATNGAHSGASALTIATPTGEGTATSKTYTRRRRLNSPEGFSLRTWEA
# B2: K. pne: PduP homologue from Klebsiella pneumoniae, YP_001336844; SEQ ID NO:45 and 46 (protein, listed as Klebsiella pneumoniae)
# chain: MNTAELETLIRTILSEKLAPTPPAPQQEQGIFCDVGSAIDAAHQAFLRYQQCPLKTRSAIISALRETLAPELATLAEESATETGMGNKEDKYLKNKAALENTPGIEDLTTSALTGDGGMVLFEYSPFGVIGAVAPSTNPTETIINNSISMLAAGNSVYFSPHPGAKKVSLKLIARIEEIAYRCSGIRNLVVTVAEPTFEATQQMMSHPLIAVLAITGGPGIVAMGMKSGKKVIGAGAGNPPCIVDETADLVKAAEDIISGAAFDYNLPCIAEKSLIVVASVADRLIQQMQDFDALLLSRQEADTLRAVCLPDGAANKKLVGKSPAALLAAAGLAVPPRPPRLLIAEVEANAPWVTCEQLMPVLPIVRVADFDSALALALRVEEGLHHTAIMHSQNVSRLNLAARTLQTSIFVKNGPSYAGIGVGGEGFTTFTIATPTGEGTTSARTFARLRRCVLTNGFSIR
# Columns and labels:
# [1] = target: T1, Lactobacillus brevis PduP, CoA-acylating propionaldehyde dehydrogenase (PduP_L.bre, YP_795711, SEQ ID NO:47 and 48), poly-His6 tagged (Levilactobacillus brevis, UniProt Q03Q42); experiment: Kinetic parameters of PduP (CoA-acylating aldehyde dehydrogenase), NADH depletion at 340 nm; assay type: biochemical; settings: for kcat: pH 7.15, 30° C., 500 μM NADH, 1 mM DTT, acyl-CoA 0.03 mM to 2 mM
# T1 sequence (Q03Q42 1-477): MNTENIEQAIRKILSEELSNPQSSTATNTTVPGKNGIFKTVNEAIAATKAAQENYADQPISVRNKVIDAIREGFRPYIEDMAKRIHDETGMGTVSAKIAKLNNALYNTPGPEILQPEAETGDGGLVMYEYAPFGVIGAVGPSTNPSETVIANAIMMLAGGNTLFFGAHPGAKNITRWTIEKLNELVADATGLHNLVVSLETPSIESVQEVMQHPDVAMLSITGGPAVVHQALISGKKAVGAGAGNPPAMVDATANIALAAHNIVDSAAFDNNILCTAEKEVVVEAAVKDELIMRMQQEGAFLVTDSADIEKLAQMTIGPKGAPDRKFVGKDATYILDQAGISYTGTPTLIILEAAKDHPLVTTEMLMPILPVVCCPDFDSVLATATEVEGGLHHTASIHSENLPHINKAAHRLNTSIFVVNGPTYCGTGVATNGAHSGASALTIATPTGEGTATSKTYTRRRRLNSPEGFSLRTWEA
# Protocol: (§1) Protein purification was done by using His-Spin Protein miniprep purification kit from Zymo following manufacturer's manual. Overnight culture of E. coli strain BL-21(DE3) harboring different pCDF-pdup plasmid was used to inoculate fresh 20 ml LB. The newly inoculated culture was incubated at 37° C. until OD600 nm reaches 0.6 which was then induced with 1 mM IPTG. The induced cultures were then incubated overnight in 30° C. rotary shaker to allow protein expression. The cultures were then harvested by centrifugation at 4,300×g for 20 min. The pellet was then resuspended with 1 mL of Zymo His-binding buffer and mixed with 1 mL of 0.1 mm glass beads (Biospec). The sample was then homogenated using TissueLyser II (Quiagen).
# (§2) Enzyme assays were conducted by using Bio-Tek PowerWave XS microplate spectrophotometer. CoA-acylating aldehyde dehydrogenase activity was measured by the decrease of absorbance at 340 nm, corresponding to depletion of NADH. […] For determining specific activity for other chain length acyl-CoA, 500 μM was used. The mixture excluding acyl-CoA was incubated for 5 minutes at 30° C. The addition of the acyl-CoA initiated the reaction. kcat and Km were determined by nonlinear regression fitting to Michaelis-Menten equation using graphing software Origin.
# (§3) To characterize these PduP homologues, plasmids harboring individual pduP genes were constructed with a poly-His6 tag (plasmids pCDF-pduP_ahyd, pCDF-pdup_kpne, pCDF-pdup_lbre, pCDF-pdup_lmon, pCDF-pdup_sent, and pCDF-pdup_pgin). PduP homologues were then purified under aerobic condition without cleaving off His tags. The activities of the enzymes were determined using acyl-CoA with different chain lengths, and the disappearance of NADH was monitored.
# (§4) The efficiency of these PduP homologues were assessed.
# [2] = target: Klebsiella pneumoniae PduP, CoA-acylating propionaldehyde dehydrogenase (PduP_K.pne, YP_001336844, SEQ ID NO:45 and 46), poly-His6 tagged (Klebsiella pneumoniae, UniProt A0ACD7U6D7); experiment: as above; settings: for kcat: pH 7.15, 30° C., 500 μM NADH, 1 mM DTT, acyl-CoA 0.03 mM to 2 mM
# Protocol: as §1, §2, §3, §4
# [3] = target: Listeria monocytigenes PduP, CoA-acylating propionaldehyde dehydrogenase (PduP_L.mon, NP_464690, SEQ ID NO:49 and 50), poly-His6 tagged (Listeria monocytogenes, UniProt Q8Y7V4); experiment: as above; settings: for kcat: pH 7.15, 30° C., 500 μM NADH, 1 mM DTT, acyl-CoA 0.03 mM to 2 mM
# Listeria monocytigenes PduP, CoA-acylating propionaldehyde dehydrogenase (PduP_L.mon, NP_464690, SEQ ID NO:49 and 50), poly-His6 tagged, sequence (Q8Y7V4 entry or part of it): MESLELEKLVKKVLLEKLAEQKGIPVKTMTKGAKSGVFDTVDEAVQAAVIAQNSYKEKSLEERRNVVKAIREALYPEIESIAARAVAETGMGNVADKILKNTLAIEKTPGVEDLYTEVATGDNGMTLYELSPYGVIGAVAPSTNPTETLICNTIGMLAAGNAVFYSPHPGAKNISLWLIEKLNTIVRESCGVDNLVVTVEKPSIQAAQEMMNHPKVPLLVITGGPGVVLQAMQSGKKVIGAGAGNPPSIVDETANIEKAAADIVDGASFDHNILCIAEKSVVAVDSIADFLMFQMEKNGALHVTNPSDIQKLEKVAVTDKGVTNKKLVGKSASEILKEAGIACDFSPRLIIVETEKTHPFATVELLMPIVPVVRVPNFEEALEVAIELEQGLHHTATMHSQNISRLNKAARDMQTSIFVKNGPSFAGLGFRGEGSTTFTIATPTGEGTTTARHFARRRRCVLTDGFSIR
# Protocol: as §1, §2, §3, §4
# [4] = target: Porphyromonas gingivalis PduP, CoA-acylating propionaldehyde dehydrogenase (PduP_P.gin, YP_001928839, SEQ ID NO:51 and 52), poly-His6 tagged (Porphyromonas gingivalis, UniProt B2RIP7); experiment: as above; settings: for kcat: pH 7.15, 30° C., 500 μM NADH, 1 mM DTT, acyl-CoA 0.03 mM to 2 mM
# Porphyromonas gingivalis PduP, CoA-acylating propionaldehyde dehydrogenase (PduP_P.gin, YP_001928839, SEQ ID NO:51 and 52), poly-His6 tagged, sequence (B2RIP7 entry or part of it): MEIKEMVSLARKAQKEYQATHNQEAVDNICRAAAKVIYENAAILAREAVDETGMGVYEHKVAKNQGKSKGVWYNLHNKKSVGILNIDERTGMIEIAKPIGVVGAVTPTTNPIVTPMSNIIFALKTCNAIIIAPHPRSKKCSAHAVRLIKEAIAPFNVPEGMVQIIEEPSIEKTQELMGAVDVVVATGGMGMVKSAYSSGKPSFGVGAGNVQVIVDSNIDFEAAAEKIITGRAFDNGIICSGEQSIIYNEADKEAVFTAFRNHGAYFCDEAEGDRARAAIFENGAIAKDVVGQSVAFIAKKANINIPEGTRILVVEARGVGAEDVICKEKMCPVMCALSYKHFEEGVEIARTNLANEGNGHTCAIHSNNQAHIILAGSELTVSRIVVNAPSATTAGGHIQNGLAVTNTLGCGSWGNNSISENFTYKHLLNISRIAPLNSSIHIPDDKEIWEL
# Protocol: as §1, §2, §3, §4
# [5] = target: Salmonella enterica PduP, CoA-acylating propionaldehyde dehydrogenase (PduP_S.ent, AAD39015, SEQ ID NO:33 and 34), poly-His6 tagged (Salmonella enterica, UniProt Q9XDN1); experiment: as above; settings: for kcat: pH 7.15, 30° C., 500 μM NADH, 1 mM DTT, acyl-CoA 0.03 mM to 2 mM
# Salmonella enterica PduP, CoA-acylating propionaldehyde dehydrogenase (PduP_S.ent, AAD39015, SEQ ID NO:33 and 34), poly-His6 tagged, sequence (Q9XDN1 whole entry): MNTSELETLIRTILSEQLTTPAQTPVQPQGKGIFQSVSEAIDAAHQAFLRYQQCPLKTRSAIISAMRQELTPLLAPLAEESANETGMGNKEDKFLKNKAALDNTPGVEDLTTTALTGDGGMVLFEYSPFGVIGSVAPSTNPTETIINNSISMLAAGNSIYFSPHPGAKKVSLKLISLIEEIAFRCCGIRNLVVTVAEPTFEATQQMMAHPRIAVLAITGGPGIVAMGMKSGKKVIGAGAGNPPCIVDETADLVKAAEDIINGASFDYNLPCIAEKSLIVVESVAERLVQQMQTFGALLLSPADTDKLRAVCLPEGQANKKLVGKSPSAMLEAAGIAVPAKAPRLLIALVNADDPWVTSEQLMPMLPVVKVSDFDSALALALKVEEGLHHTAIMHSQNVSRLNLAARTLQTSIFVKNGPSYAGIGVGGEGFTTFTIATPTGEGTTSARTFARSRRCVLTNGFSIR
# Protocol: as §1, §2, §3, §4
# [6] = test system: S. elongatus strain BUOH-SE
# Protocol: S. elongatus PCC7942 cells were grown according to the procedure in “culture medium and condition”. Once growth reached OD730 about 2, the culture was diluted to OD730 of 0.1 with 50 mL fresh BG11 medium containing 50 mM NaHCO3 and appropriate antibiotics. Then, various amounts of n-butanol were added into the culture to achieve the desired concentration (0, 250, 500, 750, and 1000 mg/L). Growth was measured daily. Every two days, 5 mL of culture was removed and 5 mL fresh BG-11 containing 500 mM NaHCO3, appropriate amounts of antibiotics and n-butanol was added back to the culture to ensure sufficient carbon supply.
# [7] = test system: S. elongatus strain BUOH-SE; experiment: n-Butanol toxicity test (growth); assay type: cell-based, Synechococcus elongatus PCC 7942
# Protocol: Growth was measured daily.
# [8] = CoA-acylating aldehyde dehydrogenase (PduP) assay, butyryl-CoA reduction; assay type: biochemical; settings: purified under aerobic condition; 500 μM NADH, 1 mM DTT, pH 7.15, 30° C.
# Protocol: as §1, §2, §3, §4
# [9] = Substrate chain length specificity of PduP; assay type: biochemical; settings: acyl-CoA chain lengths C2 to C12
# Protocol: FIG. 3A-B Substrate chain length specificity of CoA-acylating aldehyde dehydrogenases, PduP. A) Specific activity of different PduP (pmol min^−1 mg^−1). B) Relative activity of PduP. Specific activity was determined with substrate concentration of 1 mM acyl-CoA, 500 uM NADH, 1 mM DTT in 50 mM potassium phosphate buffer at pH 7.15 at 30° C.
# as §2, §3
# E. coli strain JCL166 = experiment: E. coli anaerobic growth rescue with PduP and n-butanol pathway; assay type: cell-based; settings: GC of culture medium
# Protocol: Cells of E. coli strain JCL166 and its derivatives were cultured overnight in LB with appropriate antibiotics at 37° C. Overnight cultures (3 μL) were used to inoculate 3 mL of fresh LB media supplemented with 1% glucose and appropriate antibiotics (100 μg/mL ampicillin and 50 μg/mL kanamycin) and 0.1 mM IPTG in 10 mL BD vacutainers. A needle with Millipore PES filter was used to pierce through the rubber cap of the culture. The headspace of these cultures was then purged several times with 95% N2/5% H2 gas using an anaerobic chamber (Coy Lab Products, Grass Lake, Mich.). The needle with filter was removed in anaerobic chamber. These anaerobic cultures were then taken out of anaerobic chamber and incubated in 37° C. rotary shaker. Culture was analyzed 24 hours later for cell density and alcohol content measurement.
# These PduP homologues were tested for n-butanol production utilizing an anaerobic growth rescue assay. E. coli strain JCL 166 (ΔadhE, ΔldhA, ΔfrdB) contains gene knock-outs for mixed acid fermentation. Fermentation pathways are essential for E. coli to recycle NADH back into to NAD^+ for the Embden-Meyerhof-Parnas pathway to continue (FIG. 2A). […] The culture medium of these anaerobically grown cultures were analyzed for alcohol production (FIG. 2C) using gas chromatography (GC).
# [10] = substrate: CC(=O)SCCNC(=O)CCNC(=O)[C@H](O)C(C)(C)COP(=O)(O)OP(=O)(O)OC[C@H]1O[C@@H](n2cnc3c(N)ncnc32)[C@H](O)[C@@H]1OP(=O)(O)O; experiment: purified protein, by the assay type; settings: other: pH 7.15, 30° C., 500 μM NADH, 1 mM DTT, acyl-CoA 0.03 mM to 2 mM
# [11] = substrate: CCCC(=O)SCCNC(=O)CCNC(=O)[C@H](O)C(C)(C)COP(=O)(O)OP(=O)(O)OC[C@H]1O[C@@H](n2cnc3c(N)ncnc32)[C@H](O)[C@@H]1OP(=O)(O)O; experiment: purified protein, by the assay type; settings: other: pH 7.15, 30° C., 500 μM NADH, 1 mM DTT, acyl-CoA 0.03 mM to 2 mM
# [12] = kcat/Km butyryl-CoA over kcat/Km acetyl-CoA
molecule,measurement,setting,value
"CC(=O)SCCNC(=O)CCNC(=O)[C@H](O)C(C)(C)COP(=O)(O)OP(=O)(O)OC[C@H]1O[C@@H](n2cnc3c(N)ncnc32)[C@H](O)[C@@H]1OP(=O)(O)O [Acetyl-CoA, acetyl-CoA]",kcat,[1],0.26 ± 0.10 s⁻¹
same,kcat,[2],4.63 ± 0.19 s⁻¹
same,kcat,[3],11.33 ± 0.97 s⁻¹
same,kcat,[4],0.08 ± 0.01 s⁻¹
same,kcat,[5],14.81 ± 1.00 s⁻¹
"CCCC(=O)SCCNC(=O)CCNC(=O)[C@H](O)C(C)(C)COP(=O)(O)OP(=O)(O)OC[C@H]1O[C@@H](n2cnc3c(N)ncnc32)[C@H](O)[C@@H]1OP(=O)(O)O [Butyryl-CoA, butyryl-CoA]",Ratio C4:C2 (butyryl-CoA to acetyl-CoA catalytic efficiency ratio),[1]; [12],2
same,kcat,[1],3.37 ± 0.19 s⁻¹
same,Ratio C4:C2 (butyryl-CoA to acetyl-CoA catalytic efficiency ratio),[2]; [12],5
same,kcat,[2],7.02 ± 0.64 s⁻¹
same,Ratio C4:C2 (butyryl-CoA to acetyl-CoA catalytic efficiency ratio),[3]; [12],1.4
same,kcat,[3],11.99 ± 1.56 s⁻¹
same,Ratio C4:C2 (butyryl-CoA to acetyl-CoA catalytic efficiency ratio),[4]; [12],0.6
same,kcat,[4],0.19 ± 0.02 s⁻¹
same,Ratio C4:C2 (butyryl-CoA to acetyl-CoA catalytic efficiency ratio),[5]; [12],6.8
same,kcat,[5],25.38 ± 1.81 s⁻¹
CCCCO [n-butanol],growth of S. elongatus strain BUOH-SE,[6]; 750 mg/L of n-butanol in culture medium,visible growth retardation
same,growth of S. elongatus strain BUOH-SE,[6]; 1 g/L of n-butanol,cell growth is inhibited
same,growth of S. elongatus strain BUOH-SE,[7]; 750 mg/L n-butanol in culture medium,visible growth retardation
same,growth of S. elongatus strain BUOH-SE,[7]; 1 g/L n-butanol,cell growth is inhibited
B1,Specific activity for butyryl-CoA reduction,[8],2.5 ± 0.2 µmol/min/mg
same,Acyl-CoA substrate favoured (highest specific activity),[9],hexanoyl-CoA
same,"Alcohol production from the growth rescue broth, n-butanol versus ethanol",E. coli strain JCL166,more n-butanol than ethanol
same,Km,[10],76.0 ± 38.2 µM
same,Km,[11],534.3 ± 59.8 µM
B2,Specific activity for butyryl-CoA reduction,[8],8.9 ± 4.6 µmol/min/mg
same,Acyl-CoA substrate favoured (highest specific activity),[9],highest for propionyl-CoA reduction
same,"Alcohol production from the growth rescue broth, n-butanol versus ethanol",E. coli strain JCL166,more n-butanol than ethanol
